How the values were obtained:
TFEB = TFEB nuclear translocation assay; format: cell-based; conditions: HEK293 cells stably expressing GFP-TFEB; dose-dependent, FIG. 2
Protocol: TFEB is a transcription factor and master regulator of lysosome biogenesis and autophagy. TFEB activation is shown to induce cellular clearance in a variety of LSDs and common neurodegenerative diseases.
Intracellular TFEB localization is determined either by immunofluorescence in Hela cells or by fluorescent microscopy in Hela cells stably expressing TFEB-GFP. Detailed procedures are as follows.
Cells grown on cover slips were treated with TRPML1 agonist(s) or antagonist(s) for indicated time period and then fixed with 4% paraformaldehyde for 15 minutes at room temperature. For immunofluorescent detection of endogenous TFEB, cells were permeabilized with 0.3% Triton X-100, blocked with 1% bovine serum albumin (BSA) in phosphate buffered saline (PBS) and then immunostained with anti-TFEB antibody (1:200; Cell Signaling Technology) at 4° C. for overnight. The stained cells were then incubated with secondary antibodies conjugated to Alexa Fluor 568 or 488 (ThermoFisher) for 1 h, then 4′,6-diamidino-2-phenylindole (DAPI) for 15 minutes (to stain the cell nucleus) and mounted on glass slides with Fluoromount-G (Southern Biotech) for observation. […]
Average ratios of nuclear versus cytosolic TFEB fluorescence intensity (>50 randomly-selected cells per experiment) were determined with ImageJ software (NIH).

HaCat cells = test: UV treatment and ROS staining; format: cell-based, human; conditions: 600 J/m^2 UV (254 nm), H2DCFDA, FIG. 3
Protocol: HaCat cells (a human keratinocyte cell line) at a confluency of around 50% were incubated with 20 µM H2DCFDA (Sigma) in the culture media without FBS at 37° C. for 30 min, and then washed twice with phosphate buffered saline (PBS, pH 7.4) before being exposed to UV. A CL-1000 UV Crosslinker (UVP) is used to shed 600 J/m^2 of UV light (254 nm) on the HaCat cells in all experiments. Fluorescent images were obtained right after UV exposure, via an Olympus IX73 microscopy (Olympus) and Metamorph software (Molecular Devices).

[1] = system: six other related channels; conditions: cited from earlier work
[2] = molecular target: T1, endogenous whole-endolysosome TRPML-like current (IML-L) (Homo sapiens, UniProt Q9GZU1); conditions: wild-type (WT; ML1+/+) human fibroblasts; cited from earlier work
T1 construct: host or cells: endogenous in human fibroblasts (WT and ML4); also CHO, Cos-1, HEK293, skeletal muscle, pancreatic β and macrophage cells
T1 sequence (Q9GZU1 whole entry): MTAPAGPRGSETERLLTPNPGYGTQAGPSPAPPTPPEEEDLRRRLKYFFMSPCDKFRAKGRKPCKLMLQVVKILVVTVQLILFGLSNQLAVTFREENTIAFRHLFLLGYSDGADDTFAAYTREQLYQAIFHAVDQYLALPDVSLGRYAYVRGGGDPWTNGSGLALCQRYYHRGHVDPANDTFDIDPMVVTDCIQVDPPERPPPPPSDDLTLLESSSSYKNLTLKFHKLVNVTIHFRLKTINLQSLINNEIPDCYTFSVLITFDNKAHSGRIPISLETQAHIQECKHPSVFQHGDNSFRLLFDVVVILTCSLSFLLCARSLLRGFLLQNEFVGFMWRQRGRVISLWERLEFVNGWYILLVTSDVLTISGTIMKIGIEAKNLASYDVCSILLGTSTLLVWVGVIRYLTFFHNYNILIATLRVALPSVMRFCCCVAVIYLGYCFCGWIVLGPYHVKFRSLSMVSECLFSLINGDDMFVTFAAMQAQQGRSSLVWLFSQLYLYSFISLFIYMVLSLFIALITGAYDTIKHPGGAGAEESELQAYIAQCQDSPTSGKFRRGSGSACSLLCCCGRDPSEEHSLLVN

[3] = system: endogenous whole-endolysosome TRPML-like current (IML-L); conditions: cited from earlier work
TRPML3 = molecular target: T2, TRPML3 (Homo sapiens, UniProt Q8TDD5); conditions: cited from earlier work
T2 sequence (Q8TDD5 1-553): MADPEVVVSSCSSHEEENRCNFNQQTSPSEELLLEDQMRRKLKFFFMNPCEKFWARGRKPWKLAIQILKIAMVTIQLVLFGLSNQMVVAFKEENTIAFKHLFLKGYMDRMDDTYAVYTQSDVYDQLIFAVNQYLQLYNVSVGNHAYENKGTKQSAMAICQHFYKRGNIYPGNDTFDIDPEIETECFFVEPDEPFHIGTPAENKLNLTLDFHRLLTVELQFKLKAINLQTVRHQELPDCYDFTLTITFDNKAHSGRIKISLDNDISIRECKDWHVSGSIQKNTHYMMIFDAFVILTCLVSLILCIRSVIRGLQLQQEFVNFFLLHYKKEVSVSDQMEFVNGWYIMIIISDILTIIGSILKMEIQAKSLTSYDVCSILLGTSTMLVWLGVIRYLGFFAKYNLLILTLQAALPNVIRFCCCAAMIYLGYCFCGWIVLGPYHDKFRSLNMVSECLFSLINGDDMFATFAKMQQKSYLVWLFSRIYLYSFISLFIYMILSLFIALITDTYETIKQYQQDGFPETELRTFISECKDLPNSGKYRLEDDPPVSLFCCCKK

TRPML2 = molecular target: T3, TRPML2 (Homo sapiens, UniProt Q8IZK6); conditions: cited from earlier work
T3 sequence (Q8IZK6 1-566): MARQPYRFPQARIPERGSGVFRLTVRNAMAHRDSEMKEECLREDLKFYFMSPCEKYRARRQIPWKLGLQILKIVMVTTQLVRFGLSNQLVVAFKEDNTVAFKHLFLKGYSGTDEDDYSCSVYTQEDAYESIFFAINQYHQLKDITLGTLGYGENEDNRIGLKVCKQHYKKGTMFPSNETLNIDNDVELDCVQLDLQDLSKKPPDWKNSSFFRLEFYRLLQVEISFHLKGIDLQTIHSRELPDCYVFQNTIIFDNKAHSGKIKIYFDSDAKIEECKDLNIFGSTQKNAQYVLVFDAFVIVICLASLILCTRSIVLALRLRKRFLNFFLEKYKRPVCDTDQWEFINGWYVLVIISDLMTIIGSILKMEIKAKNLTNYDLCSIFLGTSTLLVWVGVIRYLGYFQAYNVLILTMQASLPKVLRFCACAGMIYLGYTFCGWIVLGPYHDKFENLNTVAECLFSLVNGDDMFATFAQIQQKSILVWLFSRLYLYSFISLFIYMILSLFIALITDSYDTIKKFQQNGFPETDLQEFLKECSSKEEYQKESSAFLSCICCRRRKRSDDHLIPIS

TRPMLs = conditions: cited from earlier work
ML1-4A = conditions: HEK293 cells stably or transiently expressing ML1-4A; cited from earlier work
TRPML1 = conditions: cited from earlier work

Row | SMILES | TFEB-nuclear translocation (nuclear to cytosol ratio) (TFEB) | UV induced ROS (HaCat cells) | activation of six other related channels [1] | activation of whole-endolysosome IML-L [2] | activation of whole-endolysosome IML-L ([3]; ML4 (ML1−/−) human fibroblasts) | activation of endogenous whole-endolysosome IML-L ([3]; all mammalian cell types investigated (CHO, Cos-1, HEK293, skeletal muscle, pancreatic β, macrophage cells)) | activation of whole-cell ITRPML3 (TRPML3) | activation of whole-cell ITRPML2 (TRPML2) | concentration needed to effectively activate TRPMLs (TRPMLs) [µM] | [Ca2+]cyt increases (ML1-4A) | activation of whole-endolysosome IML1 compared with PI(3,5)P2 (1 μM) (TRPML1; ML-SA1 10 μM) | activation of whole-cell IML1-4A (TRPML1; whole-cell) | activation of whole-endolysosome IML1 (TRPML1; whole-endolysosome)
1 | CN(C)S(=O)(=O)c1ccc(S(=O)(=O)Nc2ccccc2N2CCN(c3ccc(Cl)cc3F)CC2)cc1 [Example 8, N1-[2-[4-(4-Chloro-2-fluorophenyl)-1-piperazinyl]phenyl]-N4,N4-dimethylbenzene-1,4-disulfonamide] | sufficient to induce TFEB-nuclear translocation | significantly reduced |  |  |  |  |  |  |  |  |  |  | 
2 | CC1CC(C)(C)N(C(=O)CN2C(=O)c3ccccc3C2=O)c2ccccc21 (stereo not shown) [ML-SA1] |  |  | not | activated | not | activated | activated | activated | ~10 | significant | comparable | robustly activated | robustly activated
